These results are taken from patent US4752612A, “Method and percutaneously administering physiologically active agents using an alcohol adjuvant and a solvent” (Nitto Electrical Industrial Co., Ltd., priority 1986, dated 1988).

Counter-ions that a name gives are not always drawn. Like-named read-outs stand apart in the source and are kept apart here.

Data set [1] has as its system rhesus monkey. Briefly: Pharmacological (behavioral) effect in animal model after percutaneous administration. Type of data set: in vivo. As to conditions: blood level approximately 100 ng/ml plasma.
The text on data set [2]:
Rat full thickness skins were used in the diffusion cell method following the method of Michaels, AlChE Journal, 21 [5], 985-996, 1975. The rat skin was mounted in the diffusion cell in a vertical position between the upstream and the downstream compartments; the exposed area of the skin approximated 4.15 cm^2.
The skin was excised from the shaved abdominal site of male albino rats weighing 250~300 g, and washed with normal saline solution after the subcutaneous fat was carefully removed with scissors.
The active agent/PAEC solution of known concentration was added to the upper compartment of the cell, which was exposed to the epithelial side of the skin and a normal saline solution was placed in the lower compartment.
The penetration rate was studied in a thermostated bath at 30° C.
As an alternative, the finite dose technique of Franz, Curr. Probl. Dermatol., Vol. 7, p. 58~68 (Karger, Basel, 1978) can also be followed where the rat skin is mounted horizontally in a diffusion cell apparatus and the exposed area of the skin approximates 0.7 cm^2.
The active agent/PAEC solution of known concentration was added to the upstream compartment to which the epithelial side of the skin was exposed, and a normal saline solution was added to the downstream compartment.
Liquid compositions are prepared by firstly mixing Component A with Component B and then blending the active agent in the mixture. In the case that Component B is a solid at ambient temperature or will not homogenously mix with Component A, 20 wt.% of ethylene glycol monobutyl ether based on the weight of Components A and B can be used as an agent for assisting dissolution.
The flux of the active agent is given in terms of μg/cm^2 /8 hours. Twenty-five volume percent Component A with respect to Component A plus Component B volume was used in the composition along with 2.5 weight percent of the active agent. For purposes of comparison, in certain instances the results for solvents alone and adjuvants alone are given.
A propranolol system was formulated as follows: […] of propranolol was dissolved in 1 ml of 25 volume % dodecanol in N-methyl-2-pyrrolidone (based on total volume) and in 1 ml of ethyl alcohol as a comparison study.
In the following Example 8, in vitro transdermal penetration was again analyzed using rat full thickness skins following the method of Michaels, AIChE Journal, 21, [53], pp. 985-996 (1975), according to the procedure earlier described. The sample volume was 1 ml unless otherwise indicated and flux of the active agent is given in μg/cm^2 /8 hours. All percents are volume percents based on the total volume of the system unless otherwise indicated.

Data set [3] is described as follows: In vivo rhesus monkey test, plasma level after topical application. Conditions: for concentration at 3 h / concentration at 5 h / concentration at 7 h: topical. How it is done:
If desired, an in vivo rhesus monkey test as described below may also be used to determine the effect of the PAEC combinations of the present invention.
Male rhesus monkeys weighing 10-14 Kg each can be used as the subject. An appropriate area of the monkey's chest is shaved 24 hours before drug application.
Drug formulations comprising the PAEC are applied to a certain area of the chest. The monkey is restrained in a chair to prevent it from touching its chest.
Blood samples are taken at appropriate intervals after the application. The heparinized blood is centrifuged, and the plasma removed and stored at -20° C. until analyzed.
In the following Examples 15 and 16, the in vivo monkey regimen earlier described was used to determine the effect of the PAEC combinations of the present invention, the regimen being modified as follows:
Male rhesus monkeys weighting 8 to 13 Kg wee used as the subject and an appropriate area of the monkey's upper back was shaved 24 hours before drug application;
the drug formulations were applied to 49 cm^2 of the upper back of the monkey; and
plasma samples taken at appropriate intervals were analyzed by conventional HPLC.
1 ml of 25% 1-dodecanol and 75% MP containing 200 mg of propanolol was impregnated into a polyester non-woven cloth (49 cm^2; 230 mg) and applied to the upper back area of the monkey.
The application site was occluded with Saran® film.
The procedure of Example 15 was followed except for using Indomethacin, a NSAID, in place of propranolol.

Take `CN1C(=O)CN=C(c2ccccc2)c2cc(Cl)ccc21` [Diazepam, 7-Chloro-1,3-dihydro-1-methyl-5-phenyl-2H-1,4-benzodiazepine-2-one]: in data set [1], the “pharmacological (behavioral) signs of therapeutic effectiveness” value is “produces pharmacological (behavioral) signs of therapeutic effectiveness”.
On to `CC(C)Cc1ccc(C(C)C(=O)O)cc1` (stereo not drawn) [Ibuprofen, p-isobutylhydratropic acid<2',4'-isobutylphenyl propionic acid], for which the “flux (Ibuprofen)” value in data set [2] ((a) 25 mg + 1 ml of 25% 1-dodecanol and 75% N-methyl pyrrolidone) worked out at 307 μg/cm^2 /8 hours; in data set [2] ((b) 25 mg + 1 ml of 25% 1-dodecanol in 75% N-methyl piperidone), 266 μg/cm^2 /8 hours; in data set [2] ((c) 25 mg + 1 ml of 25% 1-dodecanol in 75% N-methyl caprolactum) it was 148 μg/cm^2 /8 hours.
With `COc1ccc2c(c1)c(CC(=O)O)c(C)n2C(=O)c1ccc(Cl)cc1` [Indomethacin, 1-(p-chlorobenzoyl)-5-methoxy-2-methylindole-3-acetic acid], in data set [2] ((a) 25 mg + 1 ml of 25% linalool and 75% MP), the “flux (Indomethacin)” value was determined as 98 μg/cm^2 /8 hours. Besides, the “flux (Indomethacin)” value in data set [2] ((b) 25 mg + 1 ml of 25% 1-dodecanol and 75% MP) was determined as 236 μg/cm^2 /8 hours. Also, the “flux (Indomethacin)” value in data set [2] ((c) 25 mg + 1 ml of 25% oleyl alcohol and 75% MP) turned out to be 236 μg/cm^2 /8 hours. In addition, in data set [3] (rhesus monkey, in vivo, 60 min), the “Plasma Level” value stood at 0 ng/ml Plasma. Moreover, in data set [3] (rhesus monkey, in vivo), the concentration at 3 h was found to be 0.27 µg/mL, the concentration at 5 h stood at 0.495 µg/mL and the concentration at 7 h was 0.336 µg/mL.
Compound `CCN(CC)CCNC(=O)c1cc(Cl)c(N)cc1OC` [Metoclopramide (free base)] returned a Flux in data set [2] of 2694 μg/cm^2 /8 hrs.
In data set [2], `CCN(CC)CCNC(=O)c1cc(Cl)c(N)cc1OC` [Metoclopramide HCl] displayed a Flux of 3280 μg/cm^2 /8 hrs.
In the case of `COC(=O)C1=C(C)NC(C)=C(C(=O)OC)C1c1ccccc1[N+](=O)[O-]` [Nifedipine, 1,4-dihydro-2,6-dimethyl-4-(2-nitrophenyl)-3,5-pyridine dicarboxylic acid dimethyl ester], the “flux (Nifedipine)” value in data set [2] ((a) 25 mg + 1 ml of 25% 1-dodecanol and 75% MP) came to 480 μg/cm^2 /8 hours; in data set [2] ((b) 25 mg + 1 ml of 25% oleyl alcohol and 75% MP), 394 μg/cm^2 /8 hours; in data set [2] ((c) 25 mg + 1 ml of 25% 2-octyl-1-dodecanol and 75% MP), 246 μg/cm^2 /8 hours; in data set [2] ((d) control: 25 mg + 1 ml of MP) it was 30 μg/cm^2 /8 hours.
In the case of `CC(C)NCC(O)COc1cccc2ccccc12` (stereo not drawn) [Propranolol], the “Plasma Level” value in data set [3] (1 hr, 200 mg in 1 ml of 25% 1-dodecanol and 75% MP, 49 cm^2 upper back, occluded) came out at 0 ng/ml Plasma. The concentration at 3 h in data set [3] (rhesus monkey, plasma, 3 hr, 200 mg in 1 ml of 25% 1-dodecanol and 75% MP, 49 cm^2 upper back, occluded) came to 0.055 µg/mL. The concentration at 5 h in data set [3] (rhesus monkey, plasma, 5 hr, 200 mg in 1 ml of 25% 1-dodecanol and 75% MP, 49 cm^2 upper back, occluded) was found to be 0.085 µg/mL. Further, the concentration at 7 h in data set [3] (rhesus monkey, plasma, 7 hr, 200 mg in 1 ml of 25% 1-dodecanol and 75% MP, 49 cm^2 upper back, occluded) was determined as 0.08 µg/mL.
